Source: US9040563B2, “Dual inhibitors of farnesyltransferase and geranylgeranyltransferase I” (H. Lee Moffitt Cancer Center and Research Institute, Inc., priority 2010, dated 2015)
“And” between values parts separate entries of the source, which are not always exact repeats. Equal values may be shown once. One block for each compound: values may come before it.

Assays:
HPNE = experiment: MTT proliferation/viability assay; type: cell-based, human; conditions: pancreas
Procedure: (§1) To determine if FGTI-2734 is more efficacious than FT or GGT-1 inhibitors, 10 human cancer pancreatic cell lines, 2 human breast cancer cell lines, 2 human lung cancer cell lines and one human prostate cancer cell line were treated with these inhibitors and determined their effects on the proliferation of these cells by MTT assay.

BxPC3 = experiment: MTT proliferation/viability assay; type: cell-based, human
Procedure: as §1

HPDE-C7 = experiment: MTT proliferation/viability assay; type: cell-based, human; conditions: HPDE-C7, pancreas
Procedure: as §1

SW1990 = experiment: MTT proliferation/viability assay; type: cell-based, human
Procedure: as §1

HPDE-C7-Kras = experiment: MTT proliferation/viability assay; type: cell-based, human; conditions: pancreas
Procedure: as §1

ASPC-1 = experiment: MTT proliferation/viability assay; type: cell-based, human
Procedure: as §1

Panc-1 = experiment: MTT proliferation/viability assay; type: cell-based, human; conditions: Panc-1, pancreas
Procedure: as §1

HPNE-K-ras = experiment: MTT proliferation/viability assay; type: cell-based, human; conditions: pancreas
Procedure: as §1

MCF-7 = experiment: MTT proliferation/viability assay; type: cell-based, human
Procedure: as §1

MiaPaca = experiment: MTT proliferation/viability assay; type: cell-based, human
Procedure: as §1

Capan-2 = experiment: MTT proliferation/viability assay; type: cell-based, human
Procedure: as §1

A549 = experiment: MTT proliferation/viability assay; type: cell-based, human; conditions: A549, lung
Procedure: as §1

[1] = system: Rap-1A geranylgeranylation; experiment: Western blot of Rap-1A geranylgeranylation/processing (antibody to un-geranylgeranylated Rap-1A) in treated cells; type: cell-based
Procedure: The ability of FGTI-2734 to inhibit HDJ-2 farnesylation and Rap-1A geranylgeranylation in human cancer cells was determined next. To this end, the MiaPaca pancreatic cancer cell line and 2 breast cancer cell lines (MDA-MB-468 and MDA-MB-231) were treated with various concentration of the dual inhibitor FGTI-2734, the GGT-1 inhibitor GGTI-2418 or the FT inhibitor FTI-2153 and processed for Western blotting.
Testing has shown that the dual farnesyltransferase and geranygeranyltransferase-I inhibitors are effective on pancreatic tumors (90% of all cases), colonic tumors (30% of all cases), lung tumors (30% of all cases), and breast tumors (10% of all cases). NIH-3T3 cells that overexpress oncogenic mutant K-Ras, seen in FIG. 14, and MDA-MB-231 breast cancer cells with a naturally occurring K-Ras mutation, seen in FIG. 15, were treated with indicated concentrations of FGTI-2734, GGTI-2417 or FTI-2153. FGTI-2734 but not FTI-2153 or GGTI-2417 inhibited K-Ras prenylation. As expected, GGTI-2417 inhibited the processing of Rap1 but not HDJ-2 whereas FTI-2153 inhibited the processing of HDJ-2 but not Rap1.
Mammalian target of rapamycin (mTOR) is a serine/threonine phosphatidylinositol 3-kinase-related kinase responsible for cell growth, proliferation, cell survival, protein synthesis, and transcription. Alteration of the mTOR pathway, either through activation of oncogenes or inactivation of tumor suppressors, disrupts a signaling equilibrium and causes malignant transformation. Studies have shown that phosphorylated S6 (pS6) is related to mTOR pathway alterations, and is useful in determining PI3K-based cancer therapies (Aziz, et al. Phosphatidylinositol-3-Kinase as a Therapeutic Target in Melanoma. Clin Cancer Res. 2009, 15; 3029-3036). Two breast adenocarcinoma and a pancreatic carcinoma cell line were treated with indicated concentrations of FGTI-2734, GGTI-2417 or FTI-2153. Protein extracts were run on a Western Blot using antibody against pS6 (ser240/244) (Cell Signaling Technology, Inc., Danvers, Mass.). […]

DU-145 = experiment: MTT proliferation/viability assay; type: cell-based, human
Procedure: as §1

NCI-H460 = experiment: MTT proliferation/viability assay; type: cell-based; conditions: Homo sapiens, NCI-H460, lung
Procedure: as §1

IC50 (BxPC3; BxPC3, pancreas): > 100 µM
IC50 (SW1990; SW1990, pancreas): > 100 µM
IC50 (ASPC-1; ASPC-1, pancreas): > 100 µM
IC50 (Panc-1): > 100 µM
IC50 (MCF-7; MCF-7, breast): > 100 µM and 50 µM
IC50 (MiaPaca; pancreas): 1200 nM
IC50 (A549): > 100 µM
SMILES: CSCC[C@H](NC(=O)c1ccc(CNCc2cnc[nH]2)cc1-c1ccccc1C)C(=O)O [FTI-2148]
IC50 (HPNE): > 100 µM
IC50 (HPDE-C7): > 100 µM
IC50 (HPDE-C7-Kras): > 100 µM
IC50 (HPNE-K-ras): > 100 µM
IC50 (Capan-2; Capan-2, pancreas): > 100 µM

SMILES: COC(=O)[C@H](CC(C)C)NC(=O)N1CCN(Cc2nc[nH]c2C)C(=O)[C@@H]1Cc1ccccc1 [GGTI-2417, reference compound]
inhibition of Rap1 processing ([1]; NIH-3T3 overexpressing mutant K-Ras and MDA-MB-231, FIGS. 14, 15): inhibited

IC50 (DU-145; DU-145, prostate): > 50 µM
IC50 (DU-145; Homo sapiens, DU-145, DU-145, prostate): > 100 µM
IC50 (BxPC3; Homo sapiens, BXPC-3, BxPC3, pancreas): > 100 µM
IC50 (SW1990; Homo sapiens, SW1990, SW1990, pancreas): > 100 µM
IC50 (ASPC-1; Homo sapiens, ASPC1, ASPC-1, pancreas): > 100 µM
IC50 (Panc-1; Homo sapiens): > 100 µM
IC50 (MCF-7; Homo sapiens, MCF7, MCF-7, breast): > 100 µM
IC50 (MiaPaca; Homo sapiens, MIA PaCa-2, pancreas): > 100000 nM
IC50 (A549; Homo sapiens): > 100 µM
IC50 (NCI-H460): > 100 µM
SMILES: Cc1nc[nH]c1CN1CCN(C(=O)N[C@@H](CC(C)C)C(=O)O)[C@@H](Cc2ccccc2)C1=O [GGTI-2418]
IC50 (HPNE; Homo sapiens): > 100 µM
IC50 (HPDE-C7; Homo sapiens): > 100 µM
IC50 (HPDE-C7-Kras; Homo sapiens): > 100 µM
IC50 (HPNE-K-ras; Homo sapiens): > 100 µM
IC50 (Capan-2; Homo sapiens, Capan-2, Capan-2, pancreas): > 100 µM
inhibition of Rap-1A geranylgeranylation ([1]; MiaPaca, MDA-MB-468 and MDA-MB-231 human cancer cells, FIG. 13): inhibited selectively
